The nature of series [1]: Metabolic stability in human liver microsomes (HLM). Type of series: in vitro ADME. The settings on record: from HLM half-life, well-stirred model, phase I reactions; 1 μM, 0.5 mg/ml protein. The protocol: EXAMPLE 18 METABOLIC STABILITY OF (11β,17β)-17-HYDROXY-11[4-(METHYLSULPHONYL)PHENYL]-17-(PENTAFLUOROETHYL)ESTRA-4,9-DIEN-3-ONE AND (11β,17β)-17-HYDROXY-11-[4′-(METHYLSULPHONYL)-BIPHENYL-4-YL]-17-(PENTAFLUOROETHYL)ESTRA-4,9-DIEN-3-ONE IN HUMAN LIVER MICROSOMES (HLM)
Isolated human liver microsomes (HLM) were used for assessing the metabolic stability of compounds of general formula I.
Incubations were carried out with 2.4 ml of HLM solution (0.5 mg/ml protein content), 30 μl of the test compound (final concentration 1 μM) and 0.6 ml of the cofactor mixture (=NADPH-generating system of 3 IU glucose-6-phosphate dehydrogenase, 14.6 mg glucose-6-phosphate, 1.2 mg NADP) at 37° C. in 100 mM phosphate buffer at pH 7.4. Samples are taken at 6 time points (2-60 min), precipitated with an equal volume of methanol and the recovery of the test substances used in the supernatant is determined by LC-MS/MS analysis. The intrinsic clearance of the substance in the liver microsome preparation can be calculated from the half-life found for the breakdown of the substance. Based on this, together with various physiological characteristics according to the well-stirred model, it is then possible to predict a (metabolic) in vivo clearance with respect to phase I reactions. […]

The target of series [2] is T1, human progesterone receptor A (Homo sapiens, UniProt P06401).
T1 construct: expressed in transfected cells; host or cells: SK-N-MC human neuroblastoma cells, stably transfected
T1 sequence (P06401 1-769 isoform P06401-2): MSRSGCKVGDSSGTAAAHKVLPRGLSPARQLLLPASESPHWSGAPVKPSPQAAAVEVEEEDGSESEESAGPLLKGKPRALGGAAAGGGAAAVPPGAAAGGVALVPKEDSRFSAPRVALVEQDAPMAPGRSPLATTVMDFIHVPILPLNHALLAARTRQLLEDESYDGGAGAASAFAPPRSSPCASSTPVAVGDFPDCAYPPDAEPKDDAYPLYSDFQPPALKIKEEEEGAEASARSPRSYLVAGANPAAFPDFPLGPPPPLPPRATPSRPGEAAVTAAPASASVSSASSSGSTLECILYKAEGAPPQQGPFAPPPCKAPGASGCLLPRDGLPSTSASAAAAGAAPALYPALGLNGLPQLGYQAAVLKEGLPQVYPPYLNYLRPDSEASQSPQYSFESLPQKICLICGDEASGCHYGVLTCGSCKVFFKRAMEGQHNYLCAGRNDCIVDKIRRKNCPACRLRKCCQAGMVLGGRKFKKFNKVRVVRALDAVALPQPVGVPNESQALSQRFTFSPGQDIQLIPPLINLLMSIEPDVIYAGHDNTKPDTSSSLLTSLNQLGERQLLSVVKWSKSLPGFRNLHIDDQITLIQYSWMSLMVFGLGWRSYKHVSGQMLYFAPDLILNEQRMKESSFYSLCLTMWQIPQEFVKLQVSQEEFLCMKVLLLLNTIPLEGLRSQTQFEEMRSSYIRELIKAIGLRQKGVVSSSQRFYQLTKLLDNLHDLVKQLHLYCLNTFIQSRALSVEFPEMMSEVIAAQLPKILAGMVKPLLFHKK
Briefly: Progesterone receptor-antagonistic action in stably transfected SK-N-MC cells, MTV-LUC reporter (PR-A). Type of series: cell-based. The following applies: antagonism of 0.1 nmol/l promegestone, 24 hours, LUC reporter, read-out: Progesterone receptor A (PR-A) Potency IC50. The protocol:
(§1) EXAMPLE 16 PROGESTERONE RECEPTOR-ANTAGONISTIC ACTION IN STABLE TRANSFECTANTS OF HUMAN NEUROBLASTOMA CELLS (SK-N-MC CELLS) WITH THE HUMAN PROGESTERONE A OR PROGESTERONE B RECEPTOR AND AN MTV-LUC REPORTER CONSTRUCT
(§2) SK-N-MC cells (human neuroblastoma cells), which have been stably transfected with plasmids, which express the human progesterone receptor B (pRChPR-B-neo) or the human progesterone receptor A (pRChPR-A-neo) and a reporter construct (pMMTV-LUC), were incubated for 24 hours either in the absence (negative control) or in the presence of increasing amounts of the respective test compound (0.01 nmol/l, 0.1 nmol/l 1 nmol/l, 10 nmol/l, 100 nmol/l and 1 μmol/l), in order to determine the agonistic efficacy. As positive control of reporter gene induction, the cells were treated with the synthetic gestagen promegestone (0.01 nmol/l, 0.1 nmol/l, 1 nmol/l, 10 nmol/l, 100 nmol/l and 1 μmol/l). For determination of the antagonistic activity, the cells were treated with 0.1 nmol/1 promegestone and additionally with increasing amounts of the respective test compound (0.01 nmol/l, 0.1 nmol/l, 1 nmol/l, 10 nmol/l, 100 nmol/l and 1 μmol/l). The activity of the LUC reporter gene (LUC=luciferase) was determined in the cell lysates and was measured as RLU (relative light units). All measured values are given as percentage efficacy and as EC50 or IC50 concentrations.
(§3) 11β-(4-Acetylphenyl)-20,20,21,21,21-pentafluoro-17-hydroxy-19-nor-17α-pregna-4,9-dien-3-one and 20,20,21,21,21-pentafluoro-17-hydroxy-11β-[4-(hydroxyacetyl)phenyl]-19-nor-17α-pregna-4,9-dien-3-one, very potent and therefore preferred examples from WO98/34947 and WO2008/058767, were tested as comparative compounds along with the test compound.

In series [3] the target is T2, human progesterone receptor B (Homo sapiens, UniProt P06401).
T2 construct: expressed in transfected cells; host or cells: SK-N-MC human neuroblastoma cells, stably transfected
T2 sequence (P06401 1-933): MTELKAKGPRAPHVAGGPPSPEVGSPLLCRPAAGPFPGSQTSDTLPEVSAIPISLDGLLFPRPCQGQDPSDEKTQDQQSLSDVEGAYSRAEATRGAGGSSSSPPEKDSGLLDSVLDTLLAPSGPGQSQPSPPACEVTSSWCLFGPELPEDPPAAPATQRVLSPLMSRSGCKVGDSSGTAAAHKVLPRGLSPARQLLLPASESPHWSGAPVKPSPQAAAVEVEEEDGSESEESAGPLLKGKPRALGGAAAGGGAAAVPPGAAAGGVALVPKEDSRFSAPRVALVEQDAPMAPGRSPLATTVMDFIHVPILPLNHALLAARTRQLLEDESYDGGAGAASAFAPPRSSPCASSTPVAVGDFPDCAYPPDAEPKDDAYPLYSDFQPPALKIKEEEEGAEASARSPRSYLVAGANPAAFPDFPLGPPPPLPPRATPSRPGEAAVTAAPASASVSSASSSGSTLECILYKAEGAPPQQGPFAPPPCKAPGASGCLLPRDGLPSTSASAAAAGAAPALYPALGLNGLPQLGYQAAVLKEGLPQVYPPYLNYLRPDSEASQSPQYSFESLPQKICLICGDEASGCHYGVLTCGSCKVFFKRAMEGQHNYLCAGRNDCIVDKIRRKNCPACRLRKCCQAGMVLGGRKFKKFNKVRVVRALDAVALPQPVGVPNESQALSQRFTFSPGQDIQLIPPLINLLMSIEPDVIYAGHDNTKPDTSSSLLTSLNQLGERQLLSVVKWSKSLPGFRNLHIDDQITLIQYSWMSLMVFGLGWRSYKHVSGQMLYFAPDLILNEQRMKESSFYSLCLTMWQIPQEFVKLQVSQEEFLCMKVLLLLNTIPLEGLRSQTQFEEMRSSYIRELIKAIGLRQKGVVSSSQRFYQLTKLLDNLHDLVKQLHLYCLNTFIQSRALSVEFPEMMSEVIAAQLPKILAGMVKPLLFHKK
In words: Progesterone receptor-antagonistic action in stably transfected SK-N-MC cells, MTV-LUC reporter (PR-B). In kind it is cell-based. The settings on record: antagonism of 0.1 nmol/l promegestone, 24 hours, LUC reporter, read-out: Progesterone receptor B (PR-B) Potency IC50. On the procedure: as §1, §2, §3

A value given as a limit tells only on which side of the number the result lay.

Regarding `C[C@]12C[C@H](c3ccc(-c4ccc(S(C)(=O)=O)cc4)cc3)C3=C4CCC(=O)C=C4CC[C@H]3[C@@H]1CC[C@@]2(O)C(F)(F)C(F)(F)F` [Example 10, (11β,17β)-17-hydroxy-11-[4′-(methylsulphonyl)biphenyl-4-yl]-17-(pentafluoroethy)estra-4,9-dien-3-one], the “(metabolic) in vivo clearance in humans predicted” value in series [1] was less than 0.17 mL/min/kg. Further, the figures for the IC50 in series [2] and in series [3] were 0.011 nM and 0.013 nM, respectively.

Values taken from patent US10155004B2, “17-hydroxy-17-pentafluoroethyl-estra-4,9(10)-dien-11-aryl derivatives, method of production thereof and use thereof for the treatment of diseases” (BAYER INTELLECTUAL PROPERTY GMBH, priority 2009, dated 2018).
